Experimental data as given in patent publication US8530493B2, “Indolopyridines as Eg5 kinesin modulators” (4SC AG, priority 2006, dated 2013).

Experiments:
[1] = system: RKO p27 uninduced (proliferating) colon adenocarcinoma cells; test: Alamar Blue cell viability assay, RKO p27 uninduced (proliferating); assay type: cell-based; settings: Homo sapiens, RKOp27, Table B1, anti-proliferative/cytotoxic activity, 72 hours, read-out: −log EC50 RKO p27 uninduced (proliferating) (converted)
Protocol: The anti-proliferative/cytotoxic activity of the compounds described herein can be tested on subclones of RKO human colon adenocarcinoma cells (Schmidt et al., Oncogene 19, 2423-2429; 2000) using the Alamar Blue cell viability assay (described in O'Brien et al. Eur J Biochem 267, 5421-5426, 2000). The compounds are dissolved as 10 mM solutions in DMSO and subsequently diluted in semi-logarithmic steps. DMSO dilutions are further diluted 1:100 into Dulbecco's modified Eagle's medium (DMEM) containing 10% fetal calf serum to a final concentration twice as much as the final concentration in the test. RKO subclones are seeded into 96 well flat bottom plates at a density of 4000 cells per well in a volume of 50 μl per well. 24 hours after seeding the 50 μl each of the compound dilutions in DMEM medium are added into each well of the 96 well plate. Each compound dilution is tested as triplicates. Wells containing untreated control cells are filled with 50 μl DMEM medium containing 1% DMSO. The cells are then incubated with the substances for 72 hours at 37° C. in a humidified atmosphere containing 5% carbon dioxide. To determine the viability of the cells, 10 μl of an Alamar Blue solution (Biosource) are added and the fluorescence is measured at an extinction of 544 nm and an emission of 590 nm. For the calculation of the cell viability the emission value from untreated cells is set as 100% viability and the emission rates of treated cells are set in relation to the values of untreated cells. Viabilities are expressed as % values. The Graphpad Prism program is used for the calculation of EC50 values for anti-proliferative/cytotoxic activity out of the obtained dose-response curves.
(§1) To determine the cell cycle specific mode of action, subclones of RKO colon adenocarcinoma cells (RKOp21 or RKOp27 as described by Schmidt et al. in Oncogene 19, 2423-2429; 2000) are seeded into 96 well flat bottom plates at a density of 16000 cells per well in a volume of 50 μl per well in DMEM growth medium with 10% FCS containing 10 μM Ponasterone A. 24 hours after seeding the 50 μl each of the compound dilutions in DMEM medium are added into each well of the 96-well plate. Each compound dilution is tested as triplicates. Wells containing untreated control cells are filled with 50 μl DMEM medium containing 1% DMSO. The cells are then incubated with the substances for 72 hours at 37° C. in a humidified atmosphere containing 5% carbon dioxide. To determine the viability of the cells, 10 μl of an Alamar Blue solution (Biosource) are added and the fluorescence is measured at an extinction of 544 nm and an emission of 590 nm. For the calculation of the cell viability the emission value from untreated cells is set as 100% viability and the emission rates of treated cells are set in relation to the values of untreated cells. Viabilities are expressed as % values. The Graphpad Prism program (GraphPad Software, Inc) is used for the calculation of EC50 values out of the obtained dose-response curves. Viability is compared of proliferating cells grown in the absence of the inducer Ponasterone A, versus viability of cells arrested by the expression of ectopic p27Kip1 induced by Ponasterone A.
(§2) Representative values for anti-proliferation/cytotoxicity [measured as −log EC50 (mol/l)] determined in the aforementioned assays follow from the following tables B1, B2 and B3, in which the numbers of the compounds correspond to the numbers of the examples.

[2] = system: RKO p27 induced (arrested) colon adenocarcinoma cells; test: Alamar Blue cell viability assay, RKO p27 induced by Ponasterone A (arrested); assay type: cell-based; settings: Homo sapiens, RKOp27, Table B1, cells arrested by Ponasterone A-induced p27Kip1, 72 hours, read-out: −log EC50 RKO p27 induced (arrested) (converted)
Protocol: as §1, §2

EC50 [2] | SMILES | EC50 [1]
≥ 3160 nM | CCNCCN1C(=O)N2[C@H](c3cccc(O)c3)c3[nH]c4ccc(OC)cc4c3C[C@@]2(C)C1=O (racemic) [Example 35, (3aSR,10RS)-2-(2-Ethylamino-ethyl)-10-(3-hydroxy-phenyl)-6-methoxy-3a-methyl-3a,4,9,10-tetrahydro-2,9,10a-triaza-cyclopenta[b]fluorene-1,3-dione] | ≤ 39.8 nM
≥ 316 nM | CCNCCN1C(=O)N2[C@H](c3cccc(O)c3)c3[nH]c4ccc(Cl)cc4c3C[C@@]2(C)C1=O (racemic) [Example 37, (3aSR,10RS)-6-Chloro-2-(2-ethylamino-ethyl)-10-(3-hydroxy-phenyl)-3a-methyl-3a,4,9,10-tetrahydro-2,9,10a-triaza-cyclopenta[b]fluorene-1,3-dione] | ≤ 39.8 nM
≥ 316 nM | CC(C)NCCN1C(=O)N2[C@H](c3cccc(O)c3)c3[nH]c4ccc(Cl)cc4c3C[C@@]2(C)C1=O (racemic) [Example 38, (3aSR,10RS)-6-Chloro-10-(3-hydroxy-phenyl)-2-(2-isopropylamino-ethyl)-3a-methyl-3a,4,9,10-tetrahydro-2,9,10a-triaza-cyclopenta[b]fluorene-1,3-dione] | ≤ 39.8 nM
≥ 3160 nM | CC(C)N(C)CCN1C(=O)N2[C@H](c3cccc(O)c3)c3[nH]c4ccc(Cl)cc4c3C[C@@]2(C)C1=O (racemic) [Example 39, (3aSR,10RS)-6-Chloro-10-(3-hydroxy-phenyl)-2-[2-(isopropyl-methyl-amino)-ethyl]-3a-methyl-3a,4,9,10-tetrahydro-2,9,10a-triaza-cyclopenta[b]fluorene-1,3-dione] | ≤ 39.8 nM
≥ 3160 nM | CCN(C)CCN1C(=O)N2[C@H](c3cccc(O)c3)c3[nH]c4ccc(Cl)cc4c3C[C@@]2(C)C1=O (racemic) [Example 40, (3aSR,10RS)-6-Chloro-2-[2-(ethyl-methyl-amino)-ethyl]-10-(3-hydroxy-phenyl)-3a-methyl-3a,4,9,10-tetrahydro-2,9,10a-triaza-cyclopenta[b]fluorene-1,3-dione] | ≤ 39.8 nM
≥ 3160 nM | CCOc1ccc2[nH]c3c(c2c1)C[C@@]1(C)C(=O)N(CCNC)C(=O)N1[C@@H]3c1cccc(O)c1 (racemic) [Example 41, (3aSR,10RS)-6-Ethoxy-10-(3-hydroxy-phenyl)-3a-methyl-2-(2-methylamino-ethyl)-3a,4,9,10-tetrahydro-2,9,10a-triaza-cyclopenta[b]fluorene-1,3-dione] | ≤ 39.8 nM
≥ 3160 nM | CNCCN1C(=O)N2[C@H](c3cccc(O)c3)c3[nH]c4ccc(OC(F)F)cc4c3C[C@@]2(C)C1=O (racemic) [Example 42, (3aSR,10RS)-6-(1,1-Difluoro-methoxy)-10-(3-hydroxy-phenyl)-3a-methyl-2-(2-methylaminoethyl)-3a,4,9,10-tetrahydro-2,9,10a-triaza-cyclopenta[b]fluorene-1,3-dione] | ≤ 39.8 nM
≥ 3160 nM | CN(C)CCN1C(=O)N2[C@H](c3cccc(O)c3)c3[nH]c4ccc(OC(F)F)cc4c3C[C@@]2(C)C1=O (racemic) [Example 43, (3aSR,10RS)-6-(1,1-Difluoro-methoxy)-2-(2-dimethylamino-ethyl)-10-(3-hydroxy-phenyl)-3a-methyl-3a,4,9,10-tetrahydro-2,9,10a-triaza-cyclopenta[b]fluorene-1,3-dione] | ≤ 39.8 nM
≥ 3160 nM | C[C@@]12Cc3c([nH]c4ccc(OC(F)F)cc34)[C@@H](c3cccc(O)c3)N1C(=O)N(CCN1CCC1)C2=O (racemic) [Example 44, (3aSR,10RS)-2-(2-Azetidin-1-yl-ethyl)-6-(1,1-difluoro-methoxy)-10-(3-hydroxy-phenyl)-3a-methyl-3a,4,9,10-tetrahydro-2,9,10a-triaza-cyclopenta[b]fluorene-1,3-dione] | ≤ 39.8 nM
